# Activity calls are given as the source filed them.
# How the values were obtained:
# [1] = biological target: Induced myeloid leukemia cell differentiation protein Mcl-1 (Homo sapiens, UniProt Q07820); format: functional
# H9c2 = assay: cells; format: functional, cell-based; details: Rattus norvegicus, H9c2, Myocardium;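 also: confirmatory concentration-response retest of ultra-high-throughput screening hits for modulation of myocardial damage; cell death induced by hydrogen peroxide oxidative stress; compound pretreatment for 60 min then peroxide exposure for 2 h; potency is for protecting the cells against peroxide damage rather than for killing them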
# [2] = biological target: T1, Corticotropin-releasing factor receptor 2/Corticotropin-releasing factor-binding protein (Homo sapiens, UniProt P24387+Q13324); assay: activators of CRF receptor 2 with binding protein – uHTS hits, confirmation (AID 602473); format: functional; details: read-out: EC50_Mean
# T1 sequence (Q13324 whole entry): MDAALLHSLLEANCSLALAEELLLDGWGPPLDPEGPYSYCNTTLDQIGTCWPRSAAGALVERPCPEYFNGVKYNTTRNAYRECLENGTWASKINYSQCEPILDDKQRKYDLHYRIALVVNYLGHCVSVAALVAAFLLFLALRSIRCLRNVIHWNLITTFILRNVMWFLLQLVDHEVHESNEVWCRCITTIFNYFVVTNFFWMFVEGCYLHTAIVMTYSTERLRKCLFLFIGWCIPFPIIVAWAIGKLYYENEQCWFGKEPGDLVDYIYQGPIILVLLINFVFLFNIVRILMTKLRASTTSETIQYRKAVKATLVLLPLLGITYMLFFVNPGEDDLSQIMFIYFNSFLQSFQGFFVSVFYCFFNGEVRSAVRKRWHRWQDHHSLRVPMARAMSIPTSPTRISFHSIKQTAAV
# T1 sequence (P24387 whole entry): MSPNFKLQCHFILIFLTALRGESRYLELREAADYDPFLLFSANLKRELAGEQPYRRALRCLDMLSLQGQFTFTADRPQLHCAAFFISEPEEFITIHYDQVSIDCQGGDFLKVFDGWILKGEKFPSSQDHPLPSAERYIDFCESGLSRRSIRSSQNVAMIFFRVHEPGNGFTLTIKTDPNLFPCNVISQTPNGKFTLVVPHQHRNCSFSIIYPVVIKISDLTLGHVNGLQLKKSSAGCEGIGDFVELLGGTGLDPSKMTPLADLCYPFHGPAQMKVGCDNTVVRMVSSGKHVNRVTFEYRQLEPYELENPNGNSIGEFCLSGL
# [3] = viability of uninfected HEp-2 cells – cell-based, HTS, cytotoxicity control for RSV inhibitor project, dose response (AID 2410); format: functional; details: human respiratory syncytial virus
# [4] = biological target: T2, Endoribonuclease toxin MazF (Escherichia coli K-12, UniProt P0AE70); assay: substrate-only fluorescence increase artefacts – biochemical, single-stranded RNase substrate, counter-screen for MazEF activator project, dose response (AID 588502); format: functional
# T2 sequence (P0AE70 whole entry): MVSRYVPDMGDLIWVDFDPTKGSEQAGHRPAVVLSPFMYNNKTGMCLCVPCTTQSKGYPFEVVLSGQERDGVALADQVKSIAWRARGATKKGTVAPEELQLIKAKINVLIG
# [5] = biological target: T2, Endoribonuclease toxin MazF; assay: activation of MazEF endoribonuclease cleavage – biochemical, fluorescence, single-stranded RNA substrate, uHTS hits, dose response (AID 588481); format: functional
# Protein RecA = biological target: T3, Protein RecA (Mycobacterium tuberculosis, UniProt P9WHJ3); assay: Fluorescence Cell-Free Homogeneous Dose Retest to Identify Inhibitors of RecA-Intein Splicing Activity. [Related pubchem assays (depositor defined):AID2097, AID2223, AID489010, AID492950]; format: functional
# T3 sequence (P9WHJ3 whole entry): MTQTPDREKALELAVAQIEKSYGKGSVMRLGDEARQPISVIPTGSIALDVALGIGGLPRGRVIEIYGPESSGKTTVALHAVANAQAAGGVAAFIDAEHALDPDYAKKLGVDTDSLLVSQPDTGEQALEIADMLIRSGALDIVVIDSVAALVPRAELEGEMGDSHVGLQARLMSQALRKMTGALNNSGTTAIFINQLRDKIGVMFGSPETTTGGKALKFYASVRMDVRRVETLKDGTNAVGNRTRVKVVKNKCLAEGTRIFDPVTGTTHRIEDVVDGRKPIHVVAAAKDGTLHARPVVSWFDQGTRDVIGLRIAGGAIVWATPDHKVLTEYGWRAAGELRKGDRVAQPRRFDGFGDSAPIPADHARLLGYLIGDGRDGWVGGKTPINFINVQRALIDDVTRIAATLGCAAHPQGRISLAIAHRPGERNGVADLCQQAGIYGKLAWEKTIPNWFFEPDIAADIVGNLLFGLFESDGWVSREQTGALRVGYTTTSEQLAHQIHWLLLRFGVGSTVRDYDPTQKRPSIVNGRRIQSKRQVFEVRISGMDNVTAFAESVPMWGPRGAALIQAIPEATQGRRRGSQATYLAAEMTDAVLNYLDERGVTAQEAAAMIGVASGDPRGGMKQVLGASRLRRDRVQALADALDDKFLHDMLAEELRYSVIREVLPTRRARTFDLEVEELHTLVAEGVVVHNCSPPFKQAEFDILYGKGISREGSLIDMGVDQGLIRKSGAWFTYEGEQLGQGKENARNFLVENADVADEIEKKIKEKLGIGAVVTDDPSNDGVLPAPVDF
# [6] = biological target: T4, Replicative DNA helicase DnaB (Mycobacterium tuberculosis, UniProt P9WMR3); assay: DnaB intein splicing inhibitors, dose response, biochemical, cell-free fluorescence (AID 449749); format: functional
# T4 sequence (P9WMR3 whole entry): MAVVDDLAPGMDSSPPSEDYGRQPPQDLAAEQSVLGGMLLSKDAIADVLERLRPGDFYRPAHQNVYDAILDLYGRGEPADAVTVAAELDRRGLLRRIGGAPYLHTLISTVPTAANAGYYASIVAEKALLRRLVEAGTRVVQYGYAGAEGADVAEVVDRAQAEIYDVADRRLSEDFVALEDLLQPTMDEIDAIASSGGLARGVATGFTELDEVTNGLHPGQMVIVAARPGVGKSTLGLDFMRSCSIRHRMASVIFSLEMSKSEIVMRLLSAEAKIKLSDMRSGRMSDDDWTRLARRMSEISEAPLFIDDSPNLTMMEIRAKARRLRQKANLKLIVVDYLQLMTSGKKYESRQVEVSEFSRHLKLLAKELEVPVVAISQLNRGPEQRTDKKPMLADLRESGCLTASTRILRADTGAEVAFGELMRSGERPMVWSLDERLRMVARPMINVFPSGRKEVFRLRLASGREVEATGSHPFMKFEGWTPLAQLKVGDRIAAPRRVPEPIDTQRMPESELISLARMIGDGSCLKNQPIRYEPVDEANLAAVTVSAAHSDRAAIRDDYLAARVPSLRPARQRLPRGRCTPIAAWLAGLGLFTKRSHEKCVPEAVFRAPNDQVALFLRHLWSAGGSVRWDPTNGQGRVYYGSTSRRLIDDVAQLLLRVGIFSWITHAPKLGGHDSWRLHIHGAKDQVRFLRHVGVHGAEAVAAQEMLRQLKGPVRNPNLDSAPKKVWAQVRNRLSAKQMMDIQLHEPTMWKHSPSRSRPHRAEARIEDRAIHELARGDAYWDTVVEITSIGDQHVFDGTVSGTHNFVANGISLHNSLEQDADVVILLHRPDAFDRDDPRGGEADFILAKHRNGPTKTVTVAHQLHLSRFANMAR
# [7] = biological target: Eukaryotic translation initiation factor 4E (Mus musculus, UniProt P63073); assay: blockers of eIF4G binding by eIF4E – biochemical, TR-FRET, dose response (AID 855); format: functional;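 also: potency for disrupting eIF4E binding to eIF4GI seen as loss of FRET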
# Chain of Eukaryotic translation initiation factor 4E (P63073 whole entry): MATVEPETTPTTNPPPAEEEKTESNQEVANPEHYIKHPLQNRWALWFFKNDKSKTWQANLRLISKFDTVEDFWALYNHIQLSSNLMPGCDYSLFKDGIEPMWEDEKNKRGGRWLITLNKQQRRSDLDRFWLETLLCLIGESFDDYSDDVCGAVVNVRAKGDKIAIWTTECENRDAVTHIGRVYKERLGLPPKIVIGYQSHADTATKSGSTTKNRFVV
# Streptococcus = assay: GAS UMAA2166 growth inhibition – luminescence, BacTiterGlo, counter-screen for streptokinase expression inhibitor project, dose response (AID 1915); format: functional, organism-based;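 also: potency for reduction of bacterial viability or growth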
# Streptokinase A = biological target: T5, Streptokinase A (Streptococcus pyogenes serotype M1, UniProt P10520); assay: viability-normalized secreted streptokinase activity reduction – plasminogen activation absorbance, OD405, dose response (AID 1914); format: functional, Streptococcus pyogenes M1 GAS;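 also: secreted streptokinase activity via plasminogen activation per viability signal from cell pellet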
# T5 sequence (P10520 whole entry): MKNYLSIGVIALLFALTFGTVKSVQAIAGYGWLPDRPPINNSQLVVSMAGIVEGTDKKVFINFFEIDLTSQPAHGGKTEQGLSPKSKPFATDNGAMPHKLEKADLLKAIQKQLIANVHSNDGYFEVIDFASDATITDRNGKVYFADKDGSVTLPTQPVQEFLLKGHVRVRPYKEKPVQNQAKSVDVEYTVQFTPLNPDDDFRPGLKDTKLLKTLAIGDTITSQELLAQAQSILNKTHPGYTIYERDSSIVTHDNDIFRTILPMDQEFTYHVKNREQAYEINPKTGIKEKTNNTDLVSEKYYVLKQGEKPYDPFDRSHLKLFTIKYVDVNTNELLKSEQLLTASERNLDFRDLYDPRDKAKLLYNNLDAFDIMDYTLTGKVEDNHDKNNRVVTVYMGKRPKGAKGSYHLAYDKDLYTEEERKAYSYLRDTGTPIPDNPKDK
# [8] = biological target: T6, Rac GTPase-activating protein 1 (Homo sapiens, UniProt Q9H0H5); assay: blockers of MgcRacGAP-driven Rac1 GTP hydrolysis – biochemical, ADP Hunter fluorescence, primary and confirmatory, confirmation (AID 624330); format: functional
# T6 sequence (Q9H0H5 whole entry): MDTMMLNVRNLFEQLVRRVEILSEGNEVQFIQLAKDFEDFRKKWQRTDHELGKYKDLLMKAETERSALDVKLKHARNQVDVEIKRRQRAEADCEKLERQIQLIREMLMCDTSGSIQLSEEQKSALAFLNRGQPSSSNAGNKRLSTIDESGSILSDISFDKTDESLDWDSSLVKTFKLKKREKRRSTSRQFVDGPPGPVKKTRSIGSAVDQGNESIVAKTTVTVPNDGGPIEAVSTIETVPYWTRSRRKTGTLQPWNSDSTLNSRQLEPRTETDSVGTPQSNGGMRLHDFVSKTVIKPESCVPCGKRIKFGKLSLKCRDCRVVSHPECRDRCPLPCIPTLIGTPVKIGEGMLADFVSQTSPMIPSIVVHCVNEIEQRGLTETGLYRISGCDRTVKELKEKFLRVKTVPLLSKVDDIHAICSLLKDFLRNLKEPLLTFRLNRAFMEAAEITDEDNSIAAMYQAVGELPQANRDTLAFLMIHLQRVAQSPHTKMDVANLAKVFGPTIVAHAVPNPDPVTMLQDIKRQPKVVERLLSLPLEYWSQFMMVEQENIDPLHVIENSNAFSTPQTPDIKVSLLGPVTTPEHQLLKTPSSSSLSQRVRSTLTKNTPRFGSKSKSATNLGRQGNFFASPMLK
# Cytochrome P450 1A2 = biological target: T7, Cytochrome P450 1A2 (Homo sapiens, UniProt P05177);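 also: PubChem cytochrome P450 panel assay, CYP1A2 panel member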
# T7 sequence (P05177 whole entry): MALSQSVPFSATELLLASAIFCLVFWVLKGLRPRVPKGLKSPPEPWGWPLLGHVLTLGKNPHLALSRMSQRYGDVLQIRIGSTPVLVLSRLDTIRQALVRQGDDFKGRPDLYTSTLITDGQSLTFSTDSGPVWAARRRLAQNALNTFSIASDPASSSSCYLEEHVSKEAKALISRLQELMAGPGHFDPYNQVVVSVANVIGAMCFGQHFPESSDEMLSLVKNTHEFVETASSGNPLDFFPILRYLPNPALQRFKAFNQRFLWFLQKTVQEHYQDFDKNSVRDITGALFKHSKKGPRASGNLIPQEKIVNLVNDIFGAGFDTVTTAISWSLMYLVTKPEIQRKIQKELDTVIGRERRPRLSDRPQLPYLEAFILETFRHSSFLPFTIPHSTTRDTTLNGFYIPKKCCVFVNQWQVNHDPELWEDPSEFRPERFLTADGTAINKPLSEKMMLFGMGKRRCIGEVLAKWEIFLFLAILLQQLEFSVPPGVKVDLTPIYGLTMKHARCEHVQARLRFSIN
# Chain of Induced myeloid leukemia cell differentiation protein Mcl-1 (Q07820 whole entry): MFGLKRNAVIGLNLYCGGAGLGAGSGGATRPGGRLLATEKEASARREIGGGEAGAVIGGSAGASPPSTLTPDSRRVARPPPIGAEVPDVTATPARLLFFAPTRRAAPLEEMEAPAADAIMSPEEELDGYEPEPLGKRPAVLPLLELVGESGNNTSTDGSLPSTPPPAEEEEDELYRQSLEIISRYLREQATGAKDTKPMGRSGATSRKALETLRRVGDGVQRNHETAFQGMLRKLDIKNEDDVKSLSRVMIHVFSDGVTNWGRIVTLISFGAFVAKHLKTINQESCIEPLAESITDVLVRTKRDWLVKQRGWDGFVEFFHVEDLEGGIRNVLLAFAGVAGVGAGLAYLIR
smiles,measurement,setting,value
CN(C)c1ccc(NC(=O)c2ccc([N+](=O)[O-])cc2Cl)cc1,IC50,[1],1.11 µM (not active)
O=c1cc(CSc2nc(O)c3ccccc3n2)c2ccc(O)cc2o1,IC50,H9c2,> 79 µM (inactive)
Cc1cccc2cc(/C=N/NC(=O)c3ccccc3O)c(Cl)nc12,IC50,[1],5.52 µM (active)
same,EC50,[2],> 53 µM (inactive)
Cc1ccc(NS(=O)(=O)c2cc(-c3nnc(O)c4ccccc34)ccc2C)cc1,IC50,H9c2,14.7 µM (active)
N#C/C(=C\Nc1ccc2c(c1)OCCO2)c1nc2ccccc2[nH]1,CC50,[3],21.4 µM (active)
same,IC50,H9c2,> 79 µM (inactive)
Cn1cccc1/C=C1\SC(=O)N(c2ccccc2)C1=O,EC50,[4],32 µM (inactive)
same,EC50,[5],> 99 µM (inactive)
CC1(C)CC2=Nc3nn(-c4ccccc4)c(O)c3C(c3ccc4c(c3)OCO4)C2=C(O)C1 (configuration not stated),EC50,Protein RecA,24 µM (active)
same,AC50,[6],66.1 µM (active)
CCN(CC)CCn1c(=O)n(-c2ccc(Cl)cc2)c(=O)c2c3c(sc21)CN(C)CC3,EC50,[4],> 99 µM (inactive)
same,EC50,[5],> 99 µM (inactive)
CCN1C(=O)[C@H]2[C@@H](c3ccc(-c4ccc(C(C)=O)cc4)cc3)N[C@@](C)(C(=O)OC)[C@H]2C1=O,IC50,H9c2,> 79 µM (inactive)
CC(=O)OC1=C(C#N)Cn2ccc3cccc1c32,IC50,[7],> 64 µM (inactive)
Cc1ccc([N+](=O)[O-])cc1-c1ccc2cccc(C)c2n1,IC50,[7],> 64 µM (inactive)
CCN1C(=S)SC(=O)C1=C1C=C(C)OC(C)=C1,EC50,[4],> 99 µM (inactive)
same,EC50,[5],> 99 µM (inactive)
Nc1ccc2[nH]c(-c3ccc(Cl)cc3)nc2c1,IC50,[1],8.16 µM (not active)
same,EC50,Streptococcus,> 150 µM (not active)
same,EC50,Streptokinase A,> 150 µM (not active)
same,IC50,[8],37.8 µM (active)
O=C(CCc1nc(O)c2ccccc2n1)OCc1nnc(-c2ccccc2)o1,IC50,H9c2,13 µM (active)
CC(C)(C)OC(=O)NCc1ccc(NC(=O)c2[nH]cnc2C(=O)NCCCCCCNC(=O)c2nc[nH]c2C(=O)Nc2ccc(CNC(=O)OC(C)(C)C)cc2)cc1,IC50,H9c2,> 79 µM (inactive)
CSc1nc(O)c2c3c(sc2n1)CCC3,IC50,H9c2,> 79 µM (inactive)
CC(NC(=O)c1cc2c(=O)n(C)c3ccccc3c2n1C)c1ccc2c(c1)OCCO2 (configuration not stated),IC50,H9c2,> 79 µM (inactive)
CC(NC(=O)c1ccc(Cn2cc([N+](=O)[O-])cn2)o1)c1ccccc1 (configuration not stated),IC50,[7],> 64 µM (inactive)
same,AC50,Cytochrome P450 1A2,17.8 µM (inconclusive)
Cc1ccc(S[C@@H](CCN2CC[C@H](C)CCC2=O)c2ccccc2)cc1,EC50,Protein RecA,17.6 µM (active)
same,AC50,[6],5.34 µM (active)
CCOc1ccc(S(=O)(=O)NCc2cccnc2)cc1C,EC50,Protein RecA,> 380 µM (inactive)
same,AC50,[6],> 380 µM (inactive)
